24 molecules from patent US8871767B2, “2-arylimidazo[1,2-B]pyridazine, 2-phenylimidazo[1,2-A]pyridine, and 2-phenylimidazo[1,2-A]pyrazine derivatives” (Hengrui (USA) Ltd., priority 2010, dated 2014) can be followed below.

For orientation: IC50 means the concentration that inhibits the measured activity by half.

For this test, the system named is Hedgehog pathway activation (GLi-luciferase reporter) in Shh Light II reporter cells. The test can be described thus: Hedgehog pathway activation on Shh Light II reporter cells measured by luciferase activity. Type of test: cell-based. The conditions noted are these: Mus musculus, Shh Light II, hShh activation, read-out: Shh (IC50, inhibition of Hedgehog pathway activation). How it is done: Hedgehog conditioned media was obtained by transfecting 293H cells with the full length gene encoding human Sonic Hedgehog (hShh) inserted into the pCMV6 expression vector, which contains a neomycin selectable marker and expresses the protein of interest with a C-terminal FLAG affinity tag. After selection in G418 containing media, conditioned media from Hedgehog expressing clones were tested for the ability to activate the hedgehog-responsive GLi-luciferase reporter in the Shh Light II cell line obtained by license from John Hopkins University (Taipale J, et al. Effects of oncogenic mutations in Smoothened and Patched can be reversed by cyclopamine. Nature 406: 1005-1009, 2000).
A test compound library was screened against hShh and 500 nM SAG (a direct agonist of the Smoothened receptor) activated 10T1/2/Smo#3 cells and Shh Light II reporter cells for the ability to block Hedgehog pathway activation. Concurrently, cell viability was measured by utilizing Celltiter-Blue® (Promega, Madison Wis.) viability assay. Active compounds were defined as those that inhibited Hedgehog signaling by greater than 50% with no concurrent loss in cell viability.
Their inhibitory activity against Hedgehog pathway activation on 10T1/2/Smo#3 cells as measured by ALP activity and Shh Light II reporter cells as measured by luciferase activity is shown in Table 1 below. In Table 1, +++ stands for an IC50 value that is less than 0.3 μM, ++ between 0.3 and 3 μM, + between 3 and 30 μM.
Additional data for compounds of the invention is shown below in Table 2. Their inhibitory activities against Hedgehog pathway activation are shown as IC50 values in μM on 10T1/2/Smo#3 cells as measured by ALP activity, or on Shh Light II reporter cells as measured by luciferase activity (hShh activation).
Consider `CCOC(=O)CCCOc1cc(-c2ccc3nc(-c4ccc(C)c(NC(=O)C(C)(C)C)c4)cn3n2)cc(C(F)(F)F)n1` [Example 431, ethyl 4-(4-(2-(4-methyl-3-pivalamidophenyl)imidazo[1,2-b]pyridazin-6-yl)-6-(trifluoromethyl)pyridin-2-yloxy)butanoate], for which the IC50 was determined as 0.422 µM.

Take `CCOC(=O)CCCOc1ccc(C(F)(F)F)c(-c2ccc3nc(-c4ccc(C)c(NC(=O)C(C)(C)C)c4)cn3n2)c1` [Example 434, ethyl 4-(3-(2-(4-methyl-3-pivalamidophenyl)imidazo[1,2-b]pyridazin-6-yl)-4-(trifluoromethyl)phenoxy)butanoate]: the IC50 was 0.353 µM.

Regarding `CCOC(=O)CC(=O)Nc1cc(-c2cn3nc(-c4cccnc4C(F)(F)F)ccc3n2)ccc1C` [Example 435, ethyl 3-(2-methyl-5-(6-(2-(trifluoromethyl)pyridin-3-yl)imidazo[1,2-b]pyridazin-2-yl)phenylamino)-3-oxopropanoate], the IC50 stood at 1.27 µM.

For the molecule `CCOC(=O)CCC(=O)Nc1cc(-c2cn3nc(-c4cccnc4C(F)(F)F)ccc3n2)ccc1C` [Example 436, ethyl 4-(2-methyl-5-(6-(2-(trifluoromethyl)pyridin-3-yl)imidazo[1,2-b]pyridazin-2-yl)phenylamino)-4-oxobutanoate], the IC50 amounted to 0.975 µM.

As to `Cc1ccc(-c2cn3nc(-c4cccnc4C(F)(F)F)ccc3n2)cc1NC(=O)CCCCC(=O)NO` [Example 440, N^1-hydroxy-N^6-(2-methyl-5-(6-(2-(trifluoromethyl)pyridin-3-yl)imidazo[1,2-b]pyridazin-2-yl)phenyl)adipamide], the IC50 is 4.06 µM.

For the molecule `Cc1ccc(-c2cn3nc(-c4cccnc4C(F)(F)F)ccc3n2)cc1-c1cccc(C(F)(F)F)n1` [Example 441, 2-(4-methyl-3-(6-(trifluoromethyl)pyridin-2-yl)phenyl)-6-(2-(trifluoromethyl)pyridin-3-yl)imidazo[1,2-b]pyridazine], the IC50 is 2.56 µM.

Regarding `Cc1ccc(-c2cn3nc(C4=CCCC4)ccc3n2)cc1NC(=O)C(C)(C)C` [Example 442, N-(5-(6-cyclopentenylimidazo[1,2-b]pyridazin-2-yl)-2-methylphenyl)pivalamide], the IC50 came to 1.06 µM.

For the molecule `Cc1ccc(-c2cn3nc(C4=CCCCC4)ccc3n2)cc1NC(=O)C(C)(C)C` [Example 443, N-(5-(6-cyclohexenylimidazo[1,2-b]pyridazin-2-yl)-2-methylphenyl)pivalamide], the IC50 was found to be 1.88 µM.

Consider `COC(=O)c1csc(-c2ccc3nc(-c4ccc(C)c(NC(=O)C(C)(C)C)c4)cn3n2)n1` [Example 446, methyl 2-(2-(4-methyl-3-pivalamidophenyl)imidazo[1,2-b]pyridazin-6-yl)thiazole-4-carboxylate], for which the IC50 came to 1.38 µM.

For the molecule `CC(=O)Nc1ncc(-c2ccc3nc(-c4ccc(C)c(NC(=O)C(C)(C)C)c4)cn3n2)s1` [Example 447, N-(5-(6-(2-acetamidothiazol-5-yl)imidazo[1,2-b]pyridazin-2-yl)-2-methylphenyl)pivalamide], the IC50 came to 0.293 µM.

Consider `CNC(=O)c1ccccc1-c1ccc2nc(-c3ccc(C)c(NC(=O)C(C)(C)C)c3)cn2n1` [Example 452, N-methyl-2-(2-(4-methyl-3-pivalamidophenyl)imidazo[1,2-b]pyridazin-6-yl)benzamide], for which the IC50 was 0.385 µM.

Regarding `Cc1ccc(-c2cn3nc(-c4ccc(OCCCCC(=O)NO)cc4C(F)(F)F)ccc3n2)cc1NC(=O)C(C)(C)C` [Example 454, N-hydroxy-5-(4-(2-(4-methyl-3-pivalamidophenyl)imidazo[1,2-b]pyridazin-6-yl)-3-(trifluoromethyl)phenoxy)pentanamide], the IC50 is 2.05 µM.

As for `Cc1ccc(-c2cn3nc(-c4ccc(OCC(=O)NO)cc4C(F)(F)F)ccc3n2)cc1NC(=O)C(C)(C)C` [Example 455, N-(5-(6-(4-(2-(hydroxyamino)-2-oxoethoxy)-2-(trifluoromethyl)phenyl)imidazo[1,2-b]pyridazin-2-yl)-2-methylphenyl)pivalamide], the IC50 came to 3.46 µM.

With `Cc1ccc(-c2cn3nc(-c4cc(C(F)(F)F)ccn4)ccc3n2)cc1NC(=O)C(C)(C)C` [Example 456, N-(2-methyl-5-(6-(4-(trifluoromethyl)pyridin-2-yl)imidazo[1,2-b]pyridazin-2-yl)phenyl)pivalamide], the IC50 turned out to be 0.365 µM.

For the molecule `Cc1ccc(-c2cn3nc(-c4ccc(C(F)(F)F)cn4)ccc3n2)cc1NC(=O)C(C)(C)C` [Example 457, N-(2-methyl-5-(6-(5-(trifluoromethyl)pyridin-2-yl)imidazo[1,2-b]pyridazin-2-yl)phenyl)pivalamide], the IC50 is 0.334 µM.

Consider `Cc1ccc(-c2cn3nc(-c4cccc(C(F)(F)F)n4)ccc3n2)cc1NC(=O)C(C)(C)C` [Example 458, N-(2-methyl-5-(6-(6-(trifluoromethyl)pyridin-2-yl)imidazo[1,2-b]pyridazin-2-yl)phenyl)pivalamide], for which the IC50 was 0.421 µM.

Consider `Cc1ccc(-c2cn3nc(-c4ccc(C(=O)O)cn4)ccc3n2)cc1NC(=O)C(C)(C)C` [Example 459, 6-(2-(4-methyl-3-pivalamidophenyl)imidazo[1,2-b]pyridazin-6-yl)nicotinic acid], for which the IC50 was 9.29 µM.

For the molecule `Cc1ccc(-c2cn3nc(-c4cccc(CO)n4)ccc3n2)cc1NC(=O)C(C)(C)C` [Example 460, N-(5-(6-(6-(hydroxymethyl)pyridin-2-yl)imidazo[1,2-b]pyridazin-2-yl)-2-methylphenyl)pivalamide], the IC50 came to 1.12 µM.

As to `COc1cc(-c2ccc3nc(-c4ccc(C)c(NC(=O)C(C)(C)C)c4)cn3n2)ncc1C(=O)O` [Example 461, 4-methoxy-6-(2-(4-methyl-3-pivalamidophenyl)imidazo[1,2-b]pyridazin-6-yl)nicotinic acid], the IC50 came to 8.39 µM.

As to `C[C@@H]1CNCCN1c1ccc2nc(-c3ccc(C(F)(F)F)c(NC(=O)C(C)(C)C)c3)cn2n1` [Example 466, (R)-N-(5-(6-(2-methylpiperazin-1-yl)imidazo[1,2-b]pyridazin-2-yl)-2-(trifluoromethyl)phenyl)pivalamide], the IC50 was determined as 2.02 µM.

In the case of `CC(C)(C)C(=O)Nc1cc(-c2cn3nc(N4CCC[C@@H]4CO)ccc3n2)ccc1C(F)(F)F` [Example 469, (R)-N-(5-(6-(2-(hydroxymethyl)pyrrolidin-1-yl)imidazo[1,2-b]pyridazin-2-yl)-2-(trifluoromethyl)phenyl)pivalamide], the IC50 was 0.339 µM.

With `CCOC(=O)COc1cc(-c2ccc3nc(-c4ccc(C)c(NC(=O)C(C)(C)C)c4)cn3n2)cc(C(F)(F)F)n1` [Example 475, ethyl 2-(4-(2-(4-methyl-3-pivalamidophenyl)imidazo[1,2-b]pyridazin-6-yl)-6-(trifluoromethyl)pyridin-2-yloxy)acetate], the IC50 turned out to be 2.61 µM.

As to `CCOC(=O)COc1ccc(-c2ccc3nc(-c4ccc(C)c(NC(=O)C(C)(C)C)c4)cn3n2)c(C(F)(F)F)n1` [Example 476, ethyl 2-(5-(2-(4-methyl-3-pivalamidophenyl)imidazo[1,2-b]pyridazin-6-yl)-6-(trifluoromethyl)pyridin-2-yloxy)acetate], the IC50 is 0.427 µM.

On to `Cc1ccc(-c2cn3nc(-c4cccnc4C(F)(F)F)ccc3n2)cc1C#N` [Example 480, 2-methyl-5-(6-(2-(trifluoromethyl)pyridin-3-yl)imidazo[1,2-b]pyridazin-2-yl)benzonitrile], for which the IC50 turned out to be 5.19 µM.
